{"source": "patent US9402399B2", "about": "“Pesticidal mixtures including isoxazoline derivatives” (Syngenta Participations AG, priority 2011, dated 2016)", "test_system": "Tetranychus urticae", "assay": "Tetranychus urticae (Two Spotted Spider Mite) contact/feeding activity, adult mortality on sprayed bean plants", "format": "in vivo", "protocol": "Tetranychus urticae (Two Spotted Spider Mite)\n(Contact/Feeding Activity)\nBean plants are infested with mite populations of mixed ages. 1 day after infestation, plants are treated in a spray chamber with diluted test solutions. 1 and 8 days later, samples are checked for adult mortality. 2 replicates per treatment were evaluated.\nData is not shown for experiments where there was no insect mortality when the compounds were applied alone and in combination. When a compound applied alone gave no control at a particular rate, it is assumed that lower rates of that compound alone also give no control.", "data": [{"compound": "CN1COCN(Cc2cnc(Cl)s2)/C1=N\\[N+](=O)[O-]", "note": "[TMX, thiamethoxam]", "values": [{"measurement": "TMX observed control %", "setting": "TMX alone 50 ppm", "result": 0, "unit": "%"}, {"measurement": "TMX observed control %", "setting": "TMX alone 100 ppm", "result": 0, "unit": "%"}, {"measurement": "TMX observed control %", "setting": "TMX alone 200 ppm", "result": 0, "unit": "%"}, {"measurement": "TMX observed control %", "setting": "TMX alone 400 ppm", "result": 0, "unit": "%"}]}, {"compound": "CC(C)c1cc(Oc2ccccc2)cc(C(C)C)c1NC(=S)NC(C)(C)C", "note": "[DFN, diafenthiuron]", "values": [{"measurement": "DFN observed control %", "setting": "DFN alone 1.562 ppm", "result": 0, "unit": "%"}, {"measurement": "DFN observed control %", "setting": "DFN alone 3.125 ppm", "result": 0, "unit": "%"}, {"measurement": "DFN observed control %", "setting": "DFN alone 6.25 ppm", "result": 25, "unit": "%"}, {"measurement": "DFN observed control %", "setting": "DFN alone 12.5 ppm", "result": 60, "unit": "%"}, {"measurement": "DFN observed control %", "setting": "DFN alone 25 ppm", "result": 95, "unit": "%"}]}, {"compound": "CC1(C)[C@H](C(=O)O[C@H](C#N)c2cccc(Oc3ccccc3)c2)[C@@H]1/C=C(\\Cl)C(F)(F)F", "note": "(racemic) [LCYH, lambda cyhalothrin]", "values": [{"measurement": "LCYH observed control %", "setting": "LCYH alone 0.781 ppm", "result": 0, "unit": "%"}, {"measurement": "LCYH observed control %", "setting": "LCYH alone 1.562 ppm", "result": 0, "unit": "%"}, {"measurement": "LCYH observed control %", "setting": "LCYH alone 3.125 ppm", "result": 0, "unit": "%"}, {"measurement": "LCYH observed control %", "setting": "LCYH alone 6.25 ppm", "result": 25, "unit": "%"}, {"measurement": "LCYH observed control %", "setting": "LCYH alone 12.5 ppm", "result": 75, "unit": "%"}, {"measurement": "LCYH observed control %", "setting": "LCYH alone 25 ppm", "result": 80, "unit": "%"}, {"measurement": "LCYH observed control %", "setting": "LCYH alone 50 ppm", "result": 85, "unit": "%"}, {"measurement": "LCYH observed control %", "setting": "LCYH alone 100 ppm", "result": 95, "unit": "%"}]}]}
